Test results taken from US10182981B2, “Method of regulating a skin condition” (priority 2015, dated 2019).

Tested on: IL-18
Test: Evaluation of skin sensitization potential (IL-18 production in HEK)
Type: cell-based, human
Settings: HEK lysate, 16 h
Text: It is possible for a material to not be cytotoxic, and yet be unsafe due to provoking an allergic reaction upon skin contact. Typically, initial exposure to an allergen sensitizes the immune system, and following exposures cause an allergic response. Recent progress in understanding the mechanisms of skin sensitization identified interleukin-18 (IL-18) production in normal human epidermal keratinocytes (HEK) as a useful biomarker for skin contact sensitization (Corsini, et al., “Use of IL-18 Production In a Human Keratinocyte Cell Line to Discriminate Contact Sensitizers from Irritants and Low Molecular Weight Respiratory Allergens.” Toxicol In Vitro. 2009 August; 23(5):789-96; Teunis, et al., “Transfer of a Two-tiered Keratinocyte Assay: IL-18 Production by NCTC2544 to Determine the Skin Sensitizing Capacity and Epidermal Equivalent Assay to Determine Sensitizer Potency.” Toxicol In Vitro. 2013 April; 27(3):1135-50). […] Thus, IL-18 production in HEK was evaluated to determine sensitization potential.
Normal human adult epidermal keratinocytes (HEK) were cultured as described above for the cytoxicity evaluation. […] The cell lysates were collected, and IL-18 was quantified using Human IL-18 ELISA Kit (Catalog #7620, produced by MBL International Co., Woburn, Mass., USA). […] Fold changes of IL-18 levels between test articles and respective vehicle controls were calculated and compared to pPD. […]

Nc1ccc(N)cc1 [benchmark sensitizer, para-phenylenediamine]
IL18 Maximum fold change vs vehicle control: 7.8 fold) | IL18 Maximum fold change vs vehicle control (listed as para-phenylenediamine (pPD)): significantly induced IL-18
